Where “and” joins values, the source holds several entries; their conditions need not be identical. Equal values may be shown once. Inconclusive results and toxic doses are left out. Rule as the data show it: active = T/C of 150% or more; inactive = T/C below 125%.
System: L1210 leukemia ip in BDF1 mice, survival T/C
Test: NCI In Vivo Anticancer Drug Screen. Data for tumor model L1210 Leukemia (intraperitoneal) in B6D2F1 (BDF1) mice
Conditions: endpoint: mean survival time, higher = longer survival
In short: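 Mice bearing the transplanted tumor received compound or vehicle. Survival of the treated group was divided by that of the vehicle-treated control group to give the ratio.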

[1] = dose: 100.0 mg/kg/injection, schedule: Q01DX009 (ip), vehicle: saline with Tween-80
[2] = dose: 100.0 mg/kg/injection, schedule: Q04DX003 (ip), vehicle: saline with Tween-80
[3] = dose: 200.0 mg/kg/injection, schedule: Q01DX009 (ip), vehicle: saline with Tween-80
[4] = dose: 200.0 mg/kg/injection, schedule: Q04DX003 (ip), vehicle: saline with Tween-80
[5] = dose: 400.0 mg/kg/injection, schedule: Q04DX003 (ip), vehicle: saline with Tween-80
[6] = dose: 100.0 mg/kg/injection, schedule: Q01DX001 (ip), vehicle: saline
[7] = dose: 100.0 mg/kg/injection, schedule: Q04DX003 (ip), vehicle: saline
[8] = dose: 200.0 mg/kg/injection, schedule: Q01DX001 (ip), vehicle: saline
[9] = dose: 200.0 mg/kg/injection, schedule: Q04DX003 (ip), vehicle: saline
[10] = dose: 400.0 mg/kg/injection, schedule: Q01DX001 (ip), vehicle: saline
[11] = dose: 400.0 mg/kg/injection, schedule: Q04DX003 (ip), vehicle: saline
[12] = dose: 100.0 mg/kg/injection, schedule: Q04DX003 (ip), vehicle: Klucel (hydroxypropylcellulose) (HPC)
[13] = dose: 200.0 mg/kg/injection, schedule: Q04DX003 (ip), vehicle: Klucel (hydroxypropylcellulose) (HPC)
[14] = dose: 50.0 mg/kg/injection, schedule: Q04DX003 (ip), vehicle: saline with Tween-80
[15] = dose: 75.0 mg/kg/injection, schedule: Q01DX001 (ip), vehicle: saline
[16] = dose: 150.0 mg/kg/injection, schedule: Q01DX001 (ip), vehicle: saline
[17] = dose: 300.0 mg/kg/injection, schedule: Q01DX001 (ip), vehicle: saline

Measured: T/C

COCC(CNO)OC(=O)c1ccc(N)cc1 (stereo not drawn)
inactive: dose: 55.0 mg/kg/injection, schedule: Q01DX Z (ip), vehicle: saline 89 % of control | dose: 125.0 mg/kg/injection, schedule: Q01DX Z (ip), vehicle: saline 100 % of control

C[CH2][Sn]1([CH2]C)[O]OC(c2ccccc2)[O]1 (stereo not drawn)
inactive: dose: 0.78 mg/kg/injection, schedule: Q01DX009 (ip), vehicle: saline with Tween-80 101 % of control and 102 % of control | dose: 1.56 mg/kg/injection, schedule: Q01DX009 (ip), vehicle: saline with Tween-80 101 % of control and 110 % of control | dose: 3.12 mg/kg/injection, schedule: Q01DX009 (ip), vehicle: saline with Tween-80 105 % of control and 122 % of control | dose: 6.25 mg/kg/injection, schedule: Q01DX009 (ip), vehicle: saline with Tween-80 100 % of control | dose: 6.25 mg/kg/injection, schedule: Q04DX002 (ip), vehicle: saline with Tween-80 94 % of control | dose: 12.5 mg/kg/injection, schedule: Q01DX009 (ip), vehicle: saline with Tween-80 114 % of control and 121 % of control | dose: 12.5 mg/kg/injection, schedule: Q04DX002 (ip), vehicle: saline with Tween-80 96 % of control | dose: 25.0 mg/kg/injection, schedule: Q01DX009 (ip), vehicle: saline with Tween-80 91 % of control

CCCCCCCCCCCCCCCCCC[N+](C)(C)Cc1cc(=O)c(O)co1
inactive: dose: 6.25 mg/kg/injection, schedule: Q01DX009 (ip), vehicle: saline 89 % of control | dose: 12.5 mg/kg/injection, schedule: Q01DX009 (ip), vehicle: saline 106 % of control | dose: 25.0 mg/kg/injection, schedule: Q01DX009 (ip), vehicle: saline 99 % of control

C=C1OC(=O)OC1(C)CC(OC)OC (stereo not drawn)
inactive: [1] 101 % of control | [2] 94 % of control | [3] 95 % of control | [4] 92 % of control | dose: 400.0 mg/kg/injection, schedule: Q01DX009 (ip), vehicle: saline with Tween-80 98 % of control | [5] 92 % of control

CC1(C)/C(=C\S(=O)(=O)O)C2CCC1C2 (stereo not drawn)
inactive: [6] 105 % of control | [7] 110 % of control | [8] 105 % of control | [9] 98 % of control | [10] 103 % of control | [11] 101 % of control

CC1=Nc2cc(C)c(C)cc2N=C(C)C1
inactive: dose: 100.0 mg/kg/injection, schedule: Q01DX009 (ip), vehicle: Klucel (hydroxypropylcellulose) (HPC) 96 % of control | [12] 93 % of control | dose: 200.0 mg/kg/injection, schedule: Q01DX009 (ip), vehicle: Klucel (hydroxypropylcellulose) (HPC) 98 % of control | [13] 97 % of control

CN(C)CCOC(=O)c1ccc(C=O)cc1
inactive: dose: 100.0 mg/kg/injection, schedule: Q04DX002 (ip), vehicle: saline 105 % of control | dose: 200.0 mg/kg/injection, schedule: Q04DX002 (ip), vehicle: saline 110 % of control | dose: 400.0 mg/kg/injection, schedule: Q04DX002 (ip), vehicle: saline 90 % of control

CCOC(=O)C1NC(=O)N(c2ccccc2)C1=O (stereo not drawn)
inactive: [7] 103 % of control | [9] 108 % of control | [11] 104 % of control

Nc1cccc2c1nc(NCCO)c1ccccc12
inactive: [12] 114 % of control | [13] 103 % of control | dose: 400.0 mg/kg/injection, schedule: Q04DX003 (ip), vehicle: Klucel (hydroxypropylcellulose) (HPC) 103 % of control

O=C(OCC(O)C1OC(c2ccccc2)OC1C(O)COC(=O)c1ccccc1)c1ccccc1 (stereo not drawn)
inactive: [14] 102 % of control | [2] 92 % of control and 91 % of control | [4] 105 % of control | [5] 89 % of control

O=C(O)C1CCCN1 (stereo not drawn)
inactive: [6] 100 % of control | [8] 87 % of control | [10] 97 % of control

COc1ccc(C2=CC(=O)C(c3ccc(OC)cc3)=CC2=O)cc1
inactive: dose: 20.0 mg/kg/injection, schedule: Q01DX009 (ip), vehicle: gum acacia 88 % of control | dose: 20.0 mg/kg/injection, schedule: Q04DX003 (ip), vehicle: gum acacia 86 % of control | dose: 40.0 mg/kg/injection, schedule: Q04DX003 (ip), vehicle: gum acacia 92 % of control | dose: 80.0 mg/kg/injection, schedule: Q01DX009 (ip), vehicle: gum acacia 97 % of control | dose: 80.0 mg/kg/injection, schedule: Q04DX003 (ip), vehicle: gum acacia 91 % of control

NCCCCCCNC(=O)CCCCC(=O)NCCCCCCN
inactive: dose: 8.0 mg/kg/injection, schedule: Q01DX Z (ip), vehicle: water 88 % of control | dose: 16.0 mg/kg/injection, schedule: Q01DX Z (ip), vehicle: water 86 % of control | dose: 32.0 mg/kg/injection, schedule: Q01DX Z (ip), vehicle: water 89 % of control | dose: 64.0 mg/kg/injection, schedule: Q01DX Z (ip), vehicle: saline 90 % of control | dose: 64.0 mg/kg/injection, schedule: Q01DX Z (ip), vehicle: water 91 % of control

CCCCC(C)C1(C)C(=O)NC(=O)NC1=O (stereo not drawn)
inactive: [15] 105 % of control | [16] 103 % of control | [17] 105 % of control

Cc1c(C)c2nc3ccccc3nc2c2ccccc12
inactive: dose: 50.0 mg/kg/injection, schedule: Q01DX001 (ip), vehicle: Klucel (hydroxypropylcellulose) (HPC) 98 % of control | dose: 100.0 mg/kg/injection, schedule: Q01DX001 (ip), vehicle: Klucel (hydroxypropylcellulose) (HPC) 95 % of control | dose: 200.0 mg/kg/injection, schedule: Q01DX001 (ip), vehicle: Klucel (hydroxypropylcellulose) (HPC) 95 % of control

Cc1oncc1/C=C/c1ccon1
inactive: dose: 100.0 mg/kg/injection, schedule: Q04DX003 (ip), vehicle: other 96 % of control | dose: 200.0 mg/kg/injection, schedule: Q04DX003 (ip), vehicle: other 91 % of control

O=S(=O)(Nc1ccccn1)c1ccc(N=Nc2ccc(O)c3ncccc23)cc1
inactive: [6] 103 % of control | [8] 105 % of control | [10] 103 % of control

CC(C)OC(=O)Nc1cccnc1
inactive: dose: 100.0 mg/kg/injection, schedule: Q04DX002 (ip), vehicle: Klucel (hydroxypropylcellulose) (HPC) 92 % of control | dose: 200.0 mg/kg/injection, schedule: Q04DX002 (ip), vehicle: Klucel (hydroxypropylcellulose) (HPC) 98 % of control | dose: 400.0 mg/kg/injection, schedule: Q04DX002 (ip), vehicle: Klucel (hydroxypropylcellulose) (HPC) 103 % of control

CCCCCCCCCCCCCCCCS(=O)(=O)N/N=C/c1ccc(NC(C)=O)cc1
inactive: dose: 100.0 mg/kg/injection, schedule: Q01DX001 (ip), vehicle: carboxymethylcellulose (CMC) 98 % of control | dose: 200.0 mg/kg/injection, schedule: Q01DX001 (ip), vehicle: carboxymethylcellulose (CMC) 95 % of control | dose: 400.0 mg/kg/injection, schedule: Q01DX001 (ip), vehicle: carboxymethylcellulose (CMC) 103 % of control

O=C1c2ccccc2C(=O)N1c1c[nH]c(=O)[nH]c1=O
inactive: dose: 25.0 mg/kg/injection, schedule: Q04DX003 (ip), vehicle: Klucel (hydroxypropylcellulose) (HPC) 95 % of control | dose: 50.0 mg/kg/injection, schedule: Q04DX003 (ip), vehicle: Klucel (hydroxypropylcellulose) (HPC) 93 % of control

COc1cc(OC)c(OC)cc1OC
inactive: [1] 95 % of control | [3] 97 % of control

O=C(O)/C=C\c1c[nH]c2ccccc12 (tested in a mixture with another compound)
inactive: [15] 104 % of control | [16] 105 % of control | [17] 110 % of control

N#COc1cccc(OCCOc2cccc(OC#N)c2)c1
inactive: dose: 50.0 mg/kg/injection, schedule: Q01DX009 (ip), vehicle: saline with Tween-80 99 % of control | [14] 97 % of control | dose: 100.0 mg/kg/injection, schedule: Q01DX001 (ip), vehicle: saline with Tween-80 89 % of control | [1] 94 % of control | [2] 90 % of control | dose: 200.0 mg/kg/injection, schedule: Q01DX001 (ip), vehicle: saline with Tween-80 87 % of control | [3] 100 % of control | [4] 87 % of control

O=C(OCCCCCCOC(=O)c1cccc([N+](=O)[O-])c1)c1cccc([N+](=O)[O-])c1
inactive: dose: 100.0 mg/kg/injection, schedule: Q01DX001 (ip), vehicle: other 93 % of control | dose: 200.0 mg/kg/injection, schedule: Q01DX001 (ip), vehicle: other 93 % of control | dose: 400.0 mg/kg/injection, schedule: Q01DX001 (ip), vehicle: other 101 % of control

Nc1ccc(Nc2nc3ccccc3s2)c(O)c1
inactive: [15] 104 % of control | [16] 101 % of control | [17] 104 % of control

Source: PubChem BioAssay AID248 (DTP/NCI, 2004)
